Counter-ions that a name gives are not always drawn.

Series [1] addresses T1, LRRK2 recombinant protein (Homo sapiens, UniProt Q5S007).
T1 construct: purchased Invitrogen Corporation
The series is described as follows: Radiometric protein kinase assay (33PanQinase Activity Assay), in vitro peptide-based kinase assay. The series is classed as biochemical. Conditions: protein kinase LRRK2 7.3 nM, ATP 0.3 μM, substrate GSK3(14-27), 30° C. for 60 minutes. As to the method: The inhibition of LRRK2 kinase was assessed using LRRK2 recombinant protein in an in vitro peptide-based kinase assay.
A radiometric protein kinase assay (^33PanQinase® Activity Assay) is used for measuring the kinase activity. All assays are performed in 96-well FlashPlates™ from Perkin Elmer in a 50 μl reaction volume. The reaction cocktail is […] in 4 steps in the following order: • 10 μl of non-radioactive ATP solution (in H2O) • 25 μl of assay buffer/[γ-^33P]-ATP mixture • 5 μl of test sample in 10% DMSO • 10 μl of enzyme/substrate mixture
The assay for LRRK2 contains 70 mM HEPES-NaOH pH 7.5, 3 mM MgCl2, 3 mM MnCl2, 3 μM Na-orthovanadate, 1.2 mM DTT, 50 μg/ml PEG20000, ATP (0.3 μM), [γ-^33P]-ATP (approx. […] per well), protein kinase LRRK2 (7.3 nM) and substrate (GSK3(14-27), 1.0 μg/50 μl). The kinase is obtained from Invitrogen Corporation.
The reaction cocktails were incubated at 30° C. for 60 minutes. The reaction was stopped with 50 μl of 2% (v/v) H3PO4, plates were aspirated and washed two times with 200 μl 0.9% (w/v) NaCl. Incorporation of ^33Pi (counting of “cpm”) was determined with a microplate scintillation counter.
The compounds are dissolved to 10 mM in DMSO. Where needed, solutions are sonicated in a bath sonicator.

T1 sequence (Q5S007 whole entry): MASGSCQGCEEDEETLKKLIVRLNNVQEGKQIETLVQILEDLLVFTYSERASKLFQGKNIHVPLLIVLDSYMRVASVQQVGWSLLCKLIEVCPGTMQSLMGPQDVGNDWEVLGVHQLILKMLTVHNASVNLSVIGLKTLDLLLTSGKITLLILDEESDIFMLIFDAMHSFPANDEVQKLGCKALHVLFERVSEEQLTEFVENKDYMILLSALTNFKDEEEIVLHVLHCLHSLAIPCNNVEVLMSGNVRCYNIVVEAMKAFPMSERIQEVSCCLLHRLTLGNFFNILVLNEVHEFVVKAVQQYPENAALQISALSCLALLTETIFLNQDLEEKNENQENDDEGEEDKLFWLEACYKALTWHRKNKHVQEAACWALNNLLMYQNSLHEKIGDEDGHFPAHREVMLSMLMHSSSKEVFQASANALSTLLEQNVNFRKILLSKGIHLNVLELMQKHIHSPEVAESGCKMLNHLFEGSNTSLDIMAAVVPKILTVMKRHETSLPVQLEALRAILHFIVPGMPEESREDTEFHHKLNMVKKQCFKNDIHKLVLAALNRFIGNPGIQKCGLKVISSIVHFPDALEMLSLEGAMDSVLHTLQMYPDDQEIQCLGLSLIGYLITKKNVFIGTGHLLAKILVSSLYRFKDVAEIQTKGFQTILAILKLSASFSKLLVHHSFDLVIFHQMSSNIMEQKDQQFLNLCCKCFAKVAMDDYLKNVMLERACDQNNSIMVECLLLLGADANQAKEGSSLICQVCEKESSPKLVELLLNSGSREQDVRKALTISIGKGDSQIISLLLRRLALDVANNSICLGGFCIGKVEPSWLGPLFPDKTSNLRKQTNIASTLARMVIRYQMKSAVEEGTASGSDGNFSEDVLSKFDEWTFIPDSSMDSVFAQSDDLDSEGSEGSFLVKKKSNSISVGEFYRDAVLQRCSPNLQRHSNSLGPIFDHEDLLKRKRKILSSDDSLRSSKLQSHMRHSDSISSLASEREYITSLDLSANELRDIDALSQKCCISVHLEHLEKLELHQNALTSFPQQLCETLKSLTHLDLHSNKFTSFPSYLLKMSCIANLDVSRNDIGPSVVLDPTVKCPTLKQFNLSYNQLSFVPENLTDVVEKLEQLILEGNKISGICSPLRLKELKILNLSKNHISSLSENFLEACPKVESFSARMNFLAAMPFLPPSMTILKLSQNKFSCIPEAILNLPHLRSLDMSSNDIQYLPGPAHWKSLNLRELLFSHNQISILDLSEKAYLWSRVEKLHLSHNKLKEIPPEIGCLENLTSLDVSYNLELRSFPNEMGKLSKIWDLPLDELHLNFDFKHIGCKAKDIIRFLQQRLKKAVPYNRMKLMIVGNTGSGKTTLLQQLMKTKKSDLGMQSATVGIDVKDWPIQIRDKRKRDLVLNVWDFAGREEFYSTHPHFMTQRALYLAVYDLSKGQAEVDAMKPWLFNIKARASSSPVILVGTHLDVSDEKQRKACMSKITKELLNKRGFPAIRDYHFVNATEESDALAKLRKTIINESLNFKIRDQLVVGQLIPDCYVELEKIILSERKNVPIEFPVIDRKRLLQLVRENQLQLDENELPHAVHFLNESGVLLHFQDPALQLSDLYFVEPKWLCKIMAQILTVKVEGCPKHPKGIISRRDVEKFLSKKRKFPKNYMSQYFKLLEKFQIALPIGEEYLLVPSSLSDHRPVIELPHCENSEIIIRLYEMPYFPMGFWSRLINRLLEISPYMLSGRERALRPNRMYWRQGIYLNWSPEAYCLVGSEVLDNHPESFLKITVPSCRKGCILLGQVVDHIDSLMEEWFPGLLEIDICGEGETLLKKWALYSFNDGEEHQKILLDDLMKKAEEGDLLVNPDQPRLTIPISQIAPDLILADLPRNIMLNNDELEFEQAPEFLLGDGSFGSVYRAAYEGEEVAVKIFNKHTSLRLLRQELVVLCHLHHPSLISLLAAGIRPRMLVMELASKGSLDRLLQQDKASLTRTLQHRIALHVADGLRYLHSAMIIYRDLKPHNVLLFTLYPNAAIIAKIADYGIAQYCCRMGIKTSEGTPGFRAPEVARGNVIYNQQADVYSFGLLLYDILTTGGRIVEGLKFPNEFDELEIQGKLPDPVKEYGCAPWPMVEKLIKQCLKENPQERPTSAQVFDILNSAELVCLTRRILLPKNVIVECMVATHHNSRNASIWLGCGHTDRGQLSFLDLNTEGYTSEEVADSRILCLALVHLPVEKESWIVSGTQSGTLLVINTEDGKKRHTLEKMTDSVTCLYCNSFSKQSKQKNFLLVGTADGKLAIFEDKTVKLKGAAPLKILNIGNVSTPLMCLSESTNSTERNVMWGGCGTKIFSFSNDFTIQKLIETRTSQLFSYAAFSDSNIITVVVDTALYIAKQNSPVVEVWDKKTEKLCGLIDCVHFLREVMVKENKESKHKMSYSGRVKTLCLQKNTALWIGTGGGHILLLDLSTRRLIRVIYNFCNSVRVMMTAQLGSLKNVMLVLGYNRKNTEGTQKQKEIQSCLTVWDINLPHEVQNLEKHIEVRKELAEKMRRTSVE

For the molecule `Fc1ccc2cc1-c1cnc3ccc(nn13)NCCNCCCN2` [Compound G37], the melting point was > 300 °C. Moreover, the IC50 in series [1] was < 100 nM.

With `Fc1ccc2cc1-c1cnn3ccc(nc13)NCCCNCCN2` [Compound G12], the melting point was > 300 °C. In series [1], the 50% inhibitory concentration (IC50) is < 100 nM.

For the molecule `CN1CCCNCCOc2ccc(F)c(c2)-c2cnn3ccc1nc23` (as salt: HCl) [Compound G16], the melting point was > 300 °C.

Take `Fc1ccc2cc1-c1cnc3ccc(nn13)OCCCNCCN2` [Compound G36]: the melting point was > 300 °C. Besides, the IC50 in series [1] was < 100 nM.

As to `c1cc2cc(c1)-c1cnc3ccc(nn13)NCCCNCCO2` [Compound G4], the melting point is > 300 °C. For the same molecule, the IC50 in series [1] was < 100 nM.

As to `Fc1ccc2cc1OCCNCCNc1ccn3ncc-2c3n1` [Compound C2], the melting point is > 300 °C. The IC50 in series [1] was < 100 nM.

For the molecule `Fc1ccc2cc1-c1cnn3ccc(nc13)NCCNCCN2` [Compound G7], the melting point was > 300 °C. Moreover, in series [1], the IC50 was < 100 nM.

As to `CN1CCCNc2ccn3ncc(c3n2)-c2cccc(c2)OCC1` [Compound G20], the IC50 in series [1] was < 100 nM.

`Fc1ccc2cc1-c1cnn3ccc(nc13)NCCCNCCO2` [Compound G6] gave a melting point of 197.6 °C. For the same molecule, the IC50 in series [1] was < 100 nM.

Molecule `CN1CCCOc2ccc3ncc(n3n2)-c2cc(ccc2F)NCC1` [Compound G44] came in with a melting point of 242.3 °C. For the same molecule, the IC50 in series [1] was < 100 nM.

In turn, `c1cc2cc(c1)-c1cnn3ccc(nc13)NCCCNCCCN2` (as salt: HCl) [Compound G1] returned a melting point of 280 °C.

Consider `c1cc2cc(c1)-c1cnn3ccc(nc13)NCCCNCCCN2` [Compound G1], for which the IC50 in series [1] is < 100 nM.

`c1cc2cc(c1)-c1cnn3ccc(nc13)NCCNCCCN2` [Compound D3]: the melting point is > 300 °C. The IC50 in series [1] is < 100 nM.

In turn, `CN1CCNCCCOc2cccc(c2)-c2cnn3ccc1nc23` [Compound G22] came in with a melting point of 286.4 °C. Besides, the IC50 in series [1] is < 100 nM.

As to `CC1COc2cccc(c2)-c2cnn3ccc(nc23)NCCCN1` (stereo not drawn) [Compound G31], the IC50 in series [1] is < 100 nM.

Regarding `CN1CCNCCCOc2ccc(F)c(c2)-c2cnn3ccc1nc23` [Compound G26], the melting point is > 300 °C. For the same molecule, the IC50 in series [1] was < 100 nM.

As to `c1cc2cc(c1)-c1cnn3ccc(nc13)NCCNCCN2` [Compound D1], the melting point is > 300 °C. The IC50 in series [1] is < 100 nM.

As to `CN1CCNCCCNc2ccc(F)c(c2)-c2cnn3ccc1nc23` [Compound G39], the melting point was > 300 °C. Besides, in series [1], the IC50 is < 100 nM.

On to `Fc1ccc2cc1-c1cnn3ccc(nc13)NCCNCCO2` (as salt: hydrochloride) [Compound C1], for which the melting point was > 300 °C.

Take `Fc1ccc2cc1-c1cnc3ccc(nn13)NCCNCCCO2` [Compound G33]: the melting point was > 300 °C. In addition, the IC50 in series [1] was < 100 nM.

Molecule `CN1CCNCCCNc2ccc(F)c(c2)-c2cnc3ccc1nn23` [Compound G41] displayed a melting point of 263.8 °C. For the same molecule, in series [1], the IC50 was < 100 nM.

The molecule `Cc1ccc2cc1-c1cnn3ccc(nc13)NCCCNCCO2` [Compound G42] gave a melting point of 296.8 °C. Also, the IC50 in series [1] lay in the range of 100 to 1000 nM.

Regarding `Fc1ccc2cc1-c1cnn3ccc(nc13)NCCCCNCCN2` [Compound G46], the melting point was determined as 270.4 °C. Moreover, the IC50 in series [1] is < 100 nM.

As for `c1cc2cc(c1)-c1cnn3ccc(nc13)NCCCNCCO2` [Compound A33], the melting point is > 300 °C. The IC50 in series [1] was < 100 nM.

With `CN1CCCNc2ccn3ncc(c3n2)-c2cc(ccc2F)OCC1` [Compound G18], the IC50 in series [1] is < 100 nM.

`N#CCN1CCCNc2ccc(F)c(c2)-c2cnn3ccc(nc23)NCC1` [Compound G47] registered a melting point of 262.6 °C. Moreover, the IC50 in series [1] was < 100 nM.

For the molecule `CC1CNCCCNc2ccn3ncc(c3n2)-c2cc(ccc2F)O1` (stereo not drawn) [Compound G28], the melting point is > 300 °C. Also, the 50% inhibitory concentration (IC50) in series [1] is < 100 nM.

In the case of `Fc1ccc2cc1-c1cnn3ccc(nc13)NCCCCNCCO2` [Compound G40], the melting point is > 300 °C. Besides, in series [1], the IC50 is < 100 nM.

Turning to `c1cc2cc(c1)-c1cnn3ccc(nc13)NCCCCNCCO2` [Compound G14], the melting point was > 300 °C. The concentration for half-maximal inhibition (IC50) in series [1] was < 100 nM.

`CC1COc2cccc(c2)-c2cnn3ccc(nc23)NCCN1` (stereo not drawn) [Compound G11]: the melting point came to 245.9 °C. Further, the IC50 in series [1] was < 100 nM.

On to `c1cc2cc(c1)-c1cnn3ccc(nc13)OCCCNCCN2` [Compound G3], for which the IC50 in series [1] was < 100 nM.

As for `CN1CCCNCCOc2ccc(F)c(c2)-c2cnn3ccc1nc23` [Compound G16], the IC50 in series [1] is < 100 nM.

For `Fc1ccc2cc1-c1cnc3ccc(nn13)NCCCNCCO2` [Compound G15], the IC50 in series [1] is < 100 nM.

With `CN1CCCNc2ccn3ncc(c3n2)-c2cc(ccc2F)OCC1` (as salt: HCl) [Compound G18], the melting point was > 300 °C.

For the molecule `Fc1ccc2cc1-c1cnn3ccc(nc13)NCCNCCCN2` [Compound G21], the melting point was > 300 °C. Also, the IC50 in series [1] was < 100 nM.

The molecule `c1cc2cc(c1)-c1cnn3ccc(nc13)NCCCNCCN2` [Compound D4] returned a melting point of 296.8 °C. Further, the IC50 in series [1] was < 100 nM.

In the case of `CN1CCNCCCOc2ccc(F)c(c2)-c2cnc3ccc1nn23` [Compound G34], the melting point is > 300 °C. In addition, the IC50 in series [1] is < 100 nM.

Turning to `Fc1ccc2cc1-c1cnn3ccc(nc13)NCCNCCO2` [Compound C1], the IC50 in series [1] is < 100 nM.

For `CN1CCNCCOc2cccc(c2)-c2cnn3ccc1nc23` [Compound G2], the melting point is > 300 °C. In addition, the IC50 in series [1] was < 100 nM.

As for `c1cc2cc(c1)-c1cnn3ccc(nc13)NCCCCNCCCO2` [Compound D5], the melting point was found to be 146.9 °C. Further, the IC50 in series [1] was < 100 nM.

As to `c1cc2cc(c1)-c1cnc3ccc(nn13)NCCNCCCO2` [Compound G32], the melting point is > 300 °C. Also, the IC50 in series [1] is < 100 nM.

As to `CN1CCCNCCNc2ccc(F)c(c2)-c2cnc3ccc1nn23` [Compound G50], the IC50 in series [1] was < 100 nM.

For `CN1CCCNCCOc2cccc(c2)-c2cnn3ccc1nc23` [Compound G17], the melting point is 297.5 °C. The IC50 in series [1] was < 100 nM.

`CN1CCCNCCNc2ccc(F)c(c2)-c2cnn3ccc1nc23` [Compound G35] showed a melting point of 284.8 °C. Further, the IC50 in series [1] was < 100 nM.

`CN1CCCNc2ccc(F)c(c2)-c2cnc3ccc(nn23)N(C)CC1` [Compound G48]: the melting point was 289.4 °C. Besides, the IC50 in series [1] lay in the range of 100 to 1000 nM.

With `Clc1ccc2cc1-c1cnn3ccc(nc13)NCCNCCCO2` [Compound G30], the melting point is > 300 °C. Also, the IC50 in series [1] was 100 to 1000 nM.

As for `CC1CNCCNc2ccn3ncc(c3n2)-c2cccc(c2)O1` (racemic) [Compound G5], the melting point came to 215 °C. Further, in series [1], the IC50 was < 100 nM.

`Fc1ccc2cc1-c1cnc3ccc(nn13)NCCCNCCN2` [Compound G43]: the melting point is > 300 °C. In addition, the IC50 in series [1] is < 100 nM.

For the molecule `CN1CCCNc2ccc(F)c(c2)-c2cnc3ccc(nn23)NCC1` [Compound G45], the melting point amounted to 289.1 °C. In addition, the IC50 in series [1] is < 100 nM.

The molecule `c1cc2cc(c1)-c1cnn3ccc(nc13)OCCNCCCN2` [Compound G8] yielded a melting point of 276.7 °C. In addition, the IC50 in series [1] was < 100 nM.

In the case of `Fc1ccc2cc1-c1cnn3ccc(nc13)OCCCNCCN2` [Compound G19], the melting point turned out to be 279.1 °C. In series [1], the IC50 is < 100 nM.

Turning to `CN1CCCNCCOc2ccc(F)c(c2)-c2cnc3ccc1nn23` [Compound G24], the melting point was > 300 °C. For the same molecule, in series [1], the IC50 was < 100 nM.

In the case of `Clc1ccc2cc1-c1cnn3ccc(nc13)NCCCNCCO2` [Compound G27], the melting point was > 300 °C. The IC50 in series [1] was < 100 nM.

In the case of `CC1CNCCCNc2ccn3ncc(c3n2)-c2cccc(c2)O1` (stereo not drawn) [Compound G23], the melting point was > 300 °C. In series [1], the IC50 was < 100 nM.

`c1cc2cc(c1)-c1cnn3ccc(nc13)OCCCNCCN2` (as salt: HCl) [Compound G3] registered a melting point of 280 °C.

For the molecule `CN1CCCOc2ccc(F)c(c2)-c2cnn3ccc(nc23)NCC1` [Compound G25], the melting point was found to be 168.8 °C. Besides, the IC50 in series [1] lay in the range of 100 to 1000 nM.

Consider `Fc1ccc2cc1-c1cnn3ccc(nc13)NCCCOCCN2` [Compound G49], for which, in series [1], the IC50 is < 100 nM.

As usually defined, the melting point is the temperature, or range, at which the solid turns liquid. The term IC50 denotes the midpoint of a concentration-inhibition curve.

The values are drawn from patent US20160031905A1, “Macrocyclic LRRK2 Kinase Inhibitors” (IPSEN PHARMA S.A.S., priority 2013, published 2016).
